Measurements taken from ChEMBL document CHEMBL1201862, “PubChem BioAssay data set” (2004).
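Growth conditions: 96-well plates. Treatment: test compound, 48 hours, 5 concentrations. Analysis: linear interpolation between bracketing concentrations; unreached endpoints set to highest concentration. Here, GI50 denotes the concentration required for 50% inhibition of growth.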 Active and inactive are the calls of the source. No stated cut-off is given here; in the data, active = GI50 up to about 1.1 µM and inactive = higher.

What was measured:
Experiment in all cases: growth of human tumour cells (NCI), 48 h
[1] = system: NCI-H23
[2] = system: SK-MEL-2
[3] = system: OVCAR-8
[4] = system: CCRF-CEM
[5] = system: CAKI-1
[6] = system: NCI-H226
[7] = system: A549
[8] = system: SNB-75
[9] = system: A498
[10] = system: MDA-MB-231
[11] = system: HL-60
[12] = system: SF-539
[13] = system: NCI-H460
[14] = system: SK-OV-3
[15] = system: DU-145
[16] = system: T47D
[17] = system: UO-31
[18] = system: UACC-257
[19] = system: MDA-MB-435
[20] = system: MCF7
[21] = system: UACC-62
[22] = system: HOP-92
[23] = system: HCT-15
[24] = system: SK-MEL-5
[25] = system: SW-620
[26] = system: EKVX
[27] = system: RXF 393
[28] = system: ACHN
[29] = system: RPMI-8226
[30] = system: HCT-116
[31] = system: SF-295
[32] = system: SNB-19
[33] = system: M14
[34] = system: HT-29
[35] = system: SR
[36] = system: U-251
[37] = system: TK-10
[38] = system: 786-0
[39] = system: BT-549
[40] = system: SF-268
[41] = system: SK-MEL-28
[42] = system: MDA-N
[43] = system: OVCAR-4
[44] = system: HCC 2998
[45] = system: OVCAR-5
[46] = system: NCI/ADR-RES
[47] = system: Malme-3M
[48] = system: PC-3
[49] = system: KM12
[50] = system: SN12C
[51] = system: Hs-578T
[52] = system: K562
[53] = system: MOLT-4
[54] = system: IGROV-1
[55] = system: LOX IMVI
[56] = system: OVCAR-3
[57] = system: COLO 205
[58] = system: HOP-62
[59] = system: NCI-H522

With `COc1ccccc1C1c2cc3c(cc2OC2(OC)COC(=O)C12)OCO3` (stereo not drawn) the GI50 [1] was 29.2 µM (inactive), the GI50 [2] was 7.43 µM (inactive) and the GI50 [3] was 24.3 µM (inactive). For the same compound, the GI50 [4] was 12.9 µM (inactive), the GI50 [5] was 20 µM (inactive) and the GI50 [6] was 34.8 µM (inactive). For the same compound, the GI50 [7] was 17.4 µM (inactive), the GI50 [8] was 7.16 µM (inactive) and the GI50 [9] was 6.59 µM (inactive). For the same compound, the GI50 [10] was 18.2 µM (inactive), the GI50 [11] was 3.03 µM (inactive) and the GI50 [12] was 12.3 µM (inactive). The GI50 [13] was 15.3 µM (inactive), the GI50 [14] was 18.8 µM (inactive) and the GI50 [15] was 20.4 µM (inactive). The GI50 [16] was 34.5 µM (inactive), the GI50 [17] was 14.6 µM (inactive) and the GI50 [18] was 19.7 µM (inactive). The GI50 [19] was 2.27 µM (inactive), the GI50 [20] was 10.3 µM (inactive) and the GI50 [21] was 6.04 µM (inactive). For the same compound, the GI50 [22] was 40.4 µM (inactive), the GI50 [23] was 5.33 µM and the GI50 [24] was 7.19 µM (inactive). For the same compound, the GI50 [25] was 6.7 µM (inactive), the GI50 [26] was 24.7 µM (inactive) and the GI50 [27] was 12.3 µM (inactive). For the same compound, the GI50 [28] was 22.2 µM (inactive), the GI50 [29] was 8.07 µM (inactive) and the GI50 [30] was 6.98 µM (inactive). The GI50 [31] was 13.2 µM (inactive), the GI50 [32] was 21.2 µM (inactive) and the GI50 [33] was 8.2 µM (inactive). The GI50 [34] was 5.28 µM (inactive), the GI50 [35] was 3.8 µM (inactive) and the GI50 [36] was 14.2 µM (inactive). The GI50 [37] was 39.4 µM (inactive), the GI50 [38] was 19.1 µM (inactive) and the GI50 [39] was 17.9 µM (inactive). The GI50 [40] was 14.3 µM (inactive), the GI50 [41] was 7.53 µM (inactive) and the GI50 [42] was 2.24 µM (inactive). The GI50 [43] was 19.1 µM (inactive), the GI50 [44] was 14.9 µM (inactive) and the GI50 [45] was 44.1 µM (inactive). The GI50 [46] was 6.55 µM (inactive), the GI50 [47] was 15.2 µM (inactive) and the GI50 [48] was 12 µM (inactive). For the same compound, the GI50 [49] was 4.92 µM (inactive), the GI50 [50] was 18.7 µM (inactive) and the GI50 [51] was 5.83 µM (inactive). For the same compound, the GI50 [52] was 5.22 µM (inactive), the GI50 [53] was 5.33 µM (inactive) and the GI50 [54] was 13.1 µM (inactive). For the same compound, the GI50 [55] was 9.02 µM (inactive), the GI50 [56] was 9.57 µM (inactive) and the GI50 [57] was 6.56 µM (inactive). The GI50 [58] was 22.2 µM (inactive).

With `COc1cc(C(O)CCBr)c(OC)cc1C` (stereo not drawn) the GI50 [1] was 14.3 µM (inactive), the GI50 [2] was 16 µM (inactive) and the GI50 [3] was 6.97 µM (inactive). For the same compound, the GI50 [4] was 3.07 µM (inactive), the GI50 [5] was 14.9 µM (inactive) and the GI50 [6] was 32.9 µM (inactive). The GI50 [7] was > 100 µM (inactive), the GI50 [59] was 27.5 µM (inactive) and the GI50 [8] was 30.1 µM (inactive). The GI50 [9] was > 64.6 µM (inactive), the GI50 [10] was 21.2 µM (inactive) and the GI50 [11] was > 24.7 µM (inactive). The GI50 [12] was 8.17 µM (inactive), the GI50 [13] was 30.5 µM (inactive) and the GI50 [14] was 35.3 µM (inactive). The GI50 [15] was 43.2 µM (inactive), the GI50 [16] was > 72.1 µM (inactive) and the GI50 [17] was 26.3 µM (inactive). For the same compound, the GI50 [18] was 27.7 µM (inactive), the GI50 [19] was 4.3 µM (inactive) and the GI50 [20] was 4.37 µM (inactive). For the same compound, the GI50 [21] was 14.6 µM (inactive), the GI50 [22] was 23.6 µM (inactive) and the GI50 [23] was 7.4 µM. The GI50 [24] was 6.18 µM (inactive), the GI50 [25] was 3.13 µM (inactive) and the GI50 [26] was > 100 µM (inactive). For the same compound, the GI50 [27] was 37.2 µM (inactive), the GI50 [28] was 35.7 µM (inactive) and the GI50 [29] was 6.73 µM (inactive). The GI50 [30] was 3.93 µM (inactive), the GI50 [31] was 36 µM (inactive) and the GI50 [32] was > 75.5 µM (inactive). The GI50 [33] was 4.6 µM (inactive), the GI50 [34] was 6.17 µM (inactive) and the GI50 [35] was 13 µM (inactive). The GI50 [36] was 33.2 µM (inactive), the GI50 [37] was > 66.8 µM (inactive) and the GI50 [38] was 8.32 µM (inactive). For the same compound, the GI50 [39] was 23 µM (inactive), the GI50 [40] was 31.4 µM (inactive) and the GI50 [41] was 24.4 µM (inactive). For the same compound, the GI50 [42] was 2.79 µM (inactive), the GI50 [43] was 52.8 µM (inactive) and the GI50 [45] was > 47.1 µM (inactive). The GI50 [46] was 7.43 µM (inactive), the GI50 [47] was 22.5 µM (inactive) and the GI50 [48] was 6.65 µM (inactive). The GI50 [49] was 29.9 µM (inactive), the GI50 [50] was 16.4 µM (inactive) and the GI50 [51] was 25.1 µM (inactive). For the same compound, the GI50 [52] was 3.61 µM (inactive), the GI50 [54] was 24.4 µM (inactive) and the GI50 [55] was 8.95 µM (inactive). For the same compound, the GI50 [56] was 13.4 µM (inactive), the GI50 [57] was 17.6 µM (inactive) and the GI50 [58] was 28.6 µM (inactive).

`NS(=O)(=O)c1ccc(/N=N/c2cccnc2O)cc1` was tested, and the GI50 [1] was > 100 µM (inactive), the GI50 [2] was > 100 µM (inactive) and the GI50 [3] was > 100 µM (inactive). For the same compound, the GI50 [4] was 20.7 µM (inactive), the GI50 [5] was > 100 µM (inactive) and the GI50 [6] was > 100 µM (inactive). For the same compound, the GI50 [7] was > 100 µM (inactive), the GI50 [59] was > 100 µM (inactive) and the GI50 [8] was > 100 µM (inactive). For the same compound, the GI50 [9] was > 100 µM (inactive), the GI50 [10] was > 100 µM (inactive) and the GI50 [11] was > 100 µM (inactive). The GI50 [12] was > 100 µM (inactive), the GI50 [13] was > 100 µM (inactive) and the GI50 [14] was > 100 µM (inactive). The GI50 [15] was > 100 µM (inactive), the GI50 [16] was > 100 µM (inactive) and the GI50 [17] was > 100 µM (inactive). For the same compound, the GI50 [18] was > 100 µM (inactive), the GI50 [19] was > 100 µM (inactive) and the GI50 [20] was > 100 µM (inactive). For the same compound, the GI50 [21] was > 100 µM (inactive), the GI50 [22] was > 100 µM (inactive) and the GI50 [23] was > 100 µM. For the same compound, the GI50 [24] was > 100 µM (inactive), the GI50 [25] was > 100 µM (inactive) and the GI50 [26] was > 100 µM (inactive). For the same compound, the GI50 [27] was > 100 µM (inactive), the GI50 [28] was > 100 µM (inactive) and the GI50 [29] was > 100 µM (inactive). The GI50 [30] was > 100 µM (inactive), the GI50 [31] was > 100 µM (inactive) and the GI50 [32] was > 100 µM (inactive). The GI50 [33] was > 100 µM (inactive), the GI50 [34] was > 100 µM (inactive) and the GI50 [35] was > 100 µM (inactive). For the same compound, the GI50 [36] was > 100 µM (inactive), the GI50 [37] was > 100 µM (inactive) and the GI50 [38] was > 100 µM (inactive). For the same compound, the GI50 [39] was > 100 µM (inactive), the GI50 [40] was > 100 µM (inactive) and the GI50 [41] was > 100 µM (inactive). The GI50 [42] was > 100 µM (inactive), the GI50 [43] was > 100 µM (inactive) and the GI50 [45] was > 100 µM (inactive). The GI50 [46] was > 100 µM (inactive), the GI50 [47] was > 100 µM (inactive) and the GI50 [48] was > 100 µM (inactive). For the same compound, the GI50 [49] was > 100 µM (inactive), the GI50 [50] was > 100 µM (inactive) and the GI50 [51] was > 100 µM (inactive). For the same compound, the GI50 [52] was > 100 µM (inactive), the GI50 [53] was > 100 µM (inactive) and the GI50 [54] was > 100 µM (inactive). The GI50 [55] was > 100 µM (inactive), the GI50 [56] was > 100 µM (inactive) and the GI50 [57] was > 100 µM (inactive). For the same compound, the GI50 [58] was > 100 µM (inactive).
